Values quoted from earlier work, collected in US11857677B2, “Ready to use injectable formulations of melphalan and processes for preparation thereof” (RK Pharma Solutions LLC, priority 2019, dated 2024).

N[C@@H](Cc1ccc(N(CCCl)CCCl)cc1)C(=O)O [Melphalan, 4-[bis(2-chloroethyl)amino]-L-phenylalanine]
Solubility in water: practically insoluble
